Data: PMC8113459, “Selective inhibition of cullin 3 neddylation through covalent targeting DCN1 protects mice from acetaminophen-induced liver toxicity” (Nature Communications, 2021)

Assays:
[1] = target: T1, DCN1 (Homo sapiens, UniProt Q96GG9); assay: Intact-protein mass spectrometric analysis of covalent complex formation, Method A; format: binding; conditions: for Percentage of the formation of covalent complex with DCN1 protein: 37 °C
Excerpt: MassHunter Qualitative Analysis software (Agilent) was used to analyze the data. Intact protein masses were obtained using the maximum entropy deconvolution algorithm. The mass spectrometry data in Supplementary Figs. 1–11 were generated by Method A.
Target sequence in this assay (Q96GG9 58-259 limits assumed): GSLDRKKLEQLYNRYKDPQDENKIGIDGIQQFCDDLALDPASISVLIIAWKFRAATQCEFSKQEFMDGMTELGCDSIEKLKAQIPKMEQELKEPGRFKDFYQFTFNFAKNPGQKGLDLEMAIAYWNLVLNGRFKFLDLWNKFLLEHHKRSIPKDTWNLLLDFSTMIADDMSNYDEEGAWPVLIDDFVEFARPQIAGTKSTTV

[2] = Solubility; format: physicochemical
[3] = target: T1, DCN1; assay: Cocrystal structures of lyso-DCN1-inhibitor complexes; design: to DCN1 residues 62–251; His6 (N); TEV cleavage site (N); lysozyme residues 1–164 with C54T, C97A, A146T, D127A, R154A (fusion partner, N-terminal of DCN1); made in house; host or cells: Rosetta 2 cells (E. coli)
Procedure: Lysozyme–DCN1 gene was synthesized fusing lysozyme residues 1–164, containing mutations (C54T, C97A, A146T, D127A, and R154A), to DCN1 residues 62–251. Ligation independent cloning was utilized to clone the fused gene into an N-terminal His6–TEV expression vector. The clone was transformed into Rosetta 2 cells, grown in terrific broth at 37 °C, and expressed overnight with 0.4 mM isopropyl β-D-1-thiogalactopyranoside at 20 °C. Pelleted cells were freeze-thawed and lysed in 25 mM HEPES, pH 7.5, 150 mM NaCl, 0.1% β-mercaptoethanol and protease inhibitors. Cellular debris was removed via centrifugation. The supernatant was loaded onto a Ni-NTA (Qiagen) column at 4 °C. The column was washed with 25 mM HEPES, pH 7.5, 150 mM NaCl, and 20 mM imidazole, then protein eluted with buffer containing 300 mM imidazole. The eluate was applied to a Superdex 200 (GE Healthcare) equilibrated with 25 mM HEPES, pH 7.5, 200 mM NaCl, and 1 mM DTT. The protein was judged to be greater than 95% pure by SDS-PAGE, concentrated to 3.5 mg/mL and stored at −80 °C. Yield was 450 mg/L of expressed media.
Lyso–DCN1 protein was thawed and concentrated to 9.9 mg/mL in 25 mM HEPES, pH 7.5, 200 mM NaCl, and 1 mM DTT. Each compound was incubated with protein in a 1:1.2 protein to compound molar ratio overnight at 4 °C, then spun and setup in sitting drop vapor diffusion experiments. Crystallization drops contained 2 µL of protein–inhibitor solution and 1 µL of well solution. Crystals grew at 20 °C with well solution containing 28–33% PEG 3350 and 200 mM ammonium formate. Crystals were cryoprotected in 25 mM HEPES, pH 7.5, 200 mM NaCl, 30% PEG 3350, and 1 mM DTT.
Diffraction data were collected at a wavelength of 0.9786 Å on the APS LS-CAT 21-ID-G beamline at Argonne National Laboratory. Data were processed using HKL2000[44] and solved via molecular replacement using molrep[45] with two independent search models (lysozyme and DCN1) from PDB ID 5V83. The structures were iteratively fit and refined using Coot[46] and Buster[47]. […]
Target sequence in this assay (Q96GG9 62-251): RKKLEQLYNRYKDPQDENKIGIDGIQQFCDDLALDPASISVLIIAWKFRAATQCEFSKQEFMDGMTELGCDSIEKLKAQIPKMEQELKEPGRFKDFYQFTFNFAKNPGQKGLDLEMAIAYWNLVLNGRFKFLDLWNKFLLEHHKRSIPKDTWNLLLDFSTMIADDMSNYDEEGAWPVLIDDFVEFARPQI

[4] = 10 min incubation, 1.2-fold excess inhibitor

Structure (SMILES) | covalent complex formation / reaction kinetics with DCN1 protein (in words) [1] | Percentage of the formation of covalent complex with DCN1 protein [1, 4] [%] | Percentage of the formation of covalent complex with DCN1 protein ([1]; 180 min (3 h) incubation) [%] | Percentage of the formation of covalent complex with DCN1 protein ([1]; 720 min (12 h) incubation) [%] | solubility [2] | Percentage of the formation of covalent complex with DCN1 protein ([1]; 60 min (1 h) incubation) [%] | covalent bond to Cys115 of DCN1 in the cocrystal structure [3]
CCC(=O)N[C@@H](Cc1nc2ccc(C(C)C)cc2s1)C(=O)N[C@H](CNC(=O)CCl)C1CCCCC1 [compound 2] | slow reaction kinetics | 0 | 15 | 70 | poor solubility | – | –
C=CC(=O)NC[C@@H](NC(=O)[C@H](Cc1nc2ccc(C(C)C)cc2s1)NC(=O)CC)C1CCCCC1 [compound 3] | slow reaction kinetics | 0 | – | 40 | poor solubility | – | –
CCC(=O)N[C@@H](Cc1nc2ccc(C(C)C)cc2s1)C(=O)N[C@H](CNC(=O)/C=C/CN1CCOCC1)C1CCCCC1 [compound 4] | slower reaction kinetics than 3 or 5 | 0 | – | – | – | 0 | no covalent bond formed
